Data from patent US20150038438A1, “ANTIBACTERIAL COMPOUNDS AND METHODS FOR USE” (PTC THERAPEUTICS, INC., priority 2011, published 2015).
Converted amounts (≈) assume the structure as drawn.

What was measured:
Test in all cases: Antibacterial activity, microbroth dilution method (MIC)
[1] = system: Gram-positive Staphylococcus aureus (S. aureus) 29213; type: cell-based; conditions: Staphylococcus aureus, Gram-positive S. aureus 29213
Text: (§1) The antibacterial activity from a microbroth dilution method may be presented as the minimum inhibitory concentration (MIC in μg/mL). The MIC value is the lowest concentration of drug which prevents macroscopically visible growth under test conditions.
(§2) Antibacterial activity of test compounds against the super sensitive Gram-negative Escherichia coli (E. coli) BAS849 bacterium, the control Gram-negative E. coli 25922 strain and the Gram-positive Staphylococcus aureus (S. aureus) 29213 bacterium are shown in Table 1.

[2] = system: super sensitive Gram-negative Escherichia coli (E. coli) BAS849; type: cell-based; conditions: Escherichia coli; super sensitive Gram-negative E. coli BAS849; microbroth dilution; read-out: MIC, E. coli BAS849
Text: as §1, §2

[3] = system: control Gram-negative E. coli 25922 strain; type: cell-based, Escherichia coli; conditions: Escherichia coli
Text: as §1, §2

Q: How did the MIC [1] turn out when CN(C)Cc1cc2cc3c(cc2n1C)CCCc1c-3[nH]c(=O)c(C(=O)O)c1O.Cl [Cpd 48, 10-((dimethylamino)methyl)-4-hydroxy-9-methyl-2-oxo-1,2,5,6,7,9-hexahydropyrido[3′,2′:6,7]cyclohepta[1,2-f]indole-3-carboxylic acid hydrochloride] was run?
A: 3.5 to 12.5 µg/mL

Q: What about the MIC [2] of the same compound?
A: < 1 µg/mL

Q: What about the MIC [3] of the same compound?
A: < 1 µg/mL

Q: Cl.Cl.Cn1c(CN2CC[C@H](N)C2)cc2cc3c(cc21)CCCc1c-3[nH]c(=O)c(C(=O)O)c1O [Cpd 49, (S)-10-((3-aminopyrrolidin-1-yl)methyl)-4-hydroxy-9-methyl-2-oxo-1,2,5,6,7,9-hexahydropyrido[3′,2′:6,7]cyclohepta[1,2-f]indole-3-carboxylic acid dihydrochloride] was tested. Which MIC [1] did it give?
A: 12.5 to 150 µg/mL

Q: What about the MIC [2] of the same compound?
A: 1 to 3.5 µg/mL

Q: And the MIC [3]?
A: 3.5 to 12.5 µg/mL

Q: What does the source list for Cl.Cn1c(CN2CCCC2)cc2cc3c(cc21)CCCc1c-3[nH]c(=O)c(C(=O)O)c1O [Cpd 50, 4-hydroxy-9-methyl-2-oxo-10-(pyrrolidin-1-ylmethyl)-1,2,5,6,7,9-hexahydropyrido[3′,2′:6,7]cyclohepta[1,2-f]indole-3-carboxylic acid hydrochloride]?
A: MIC [1]: 3.5 to 12.5 µg/mL; MIC [2]: < 1 µg/mL; MIC [3]: < 1 µg/mL

Q: Cl.Cn1c(CN2CCC(O)C2)cc2cc3c(cc21)CCCc1c-3[nH]c(=O)c(C(=O)O)c1O (stereo not drawn) [Cpd 51, 4-hydroxy-10-((3-hydroxypyrrolidin-1-yl)methyl)-9-methyl-2-oxo-1,2,5,6,7,9-hexahydropyrido[3′,2′:6,7]cyclohepta[1,2-f]indole-3-carboxylic acid hydrochloride] was tested. Which MIC [1] did it give?
A: 3.5 to 12.5 µg/mL

Q: What about the MIC [2] of the same compound?
A: < 1 µg/mL

Q: And the MIC [3]?
A: 1 to 3.5 µg/mL

Q: Which MIC [1] does the source give for Cl.Cn1c(CNCc2cccnc2)cc2cc3c(cc21)CCCc1c-3[nH]c(=O)c(C(=O)O)c1O [Cpd 52, 4-hydroxy-9-methyl-2-oxo-10-(((pyridin-3-ylmethyl)amino)methyl)-1,2,5,6,7,9-hexahydropyrido[3′,2′:6,7]cyclohepta[1,2-f]indole-3-carboxylic acid hydrochloride] here?
A: 3.5 to 12.5 µg/mL

Q: What about the MIC [2] of the same compound?
A: < 1 µg/mL

Q: What about the MIC [3] of the same compound?
A: 3.5 to 12.5 µg/mL

Q: CNCc1cc2cc3c(cc2n1C)CCCc1cc(C(=O)O)c(=O)[nH]c1-3.Cl [Cpd 53, 9-methyl-10-((methylamino)methyl)-2-oxo-1,2,5,6,7,9-hexahydropyrido[3′,2′:6,7]cyclohepta[1,2-f]indole-3-carboxylic acid hydrochloride] was tested. Which MIC [1] did it give?
A: 12.5 to 150 µg/mL

Q: What about the MIC [2] of the same compound?
A: < 1 µg/mL

Q: And the MIC [3]?
A: 1 to 3.5 µg/mL

Q: What does the source list for CCNCc1cc2cc3c(cc2n1C)CCCc1cc(C(=O)O)c(=O)[nH]c1-3.Cl [Cpd 54, 10-((ethylamino)methyl)-9-methyl-2-oxo-1,2,5,6,7,9-hexahydropyrido[3′,2′:6,7]cyclohepta[1,2-f]indole-3-carboxylic acid hydrochloride]?
A: MIC [1]: 12.5 to 150 µg/mL; MIC [2]: < 1 µg/mL; MIC [3]: < 1 µg/mL

Q: Which MIC [1] does the source give for CC(C)NCc1cc2cc3c(cc2n1C)CCCc1cc(C(=O)O)c(=O)[nH]c1-3.Cl [Cpd 55, 10-((isopropylamino)methyl)-9-methyl-2-oxo-1,2,5,6,7,9-hexahydropyrido[3′,2′:6,7]cyclohepta[1,2-f]indole-3-carboxylic acid hydrochloride] here?
A: 12.5 to 150 µg/mL

Q: What about the MIC [2] of the same compound?
A: < 1 µg/mL

Q: What about the MIC [3] of the same compound?
A: 1 to 3.5 µg/mL

Q: How did the MIC [1] turn out when Cl.Cn1c(CNC(C)(C)C)cc2cc3c(cc21)CCCc1cc(C(=O)O)c(=O)[nH]c1-3 [Cpd 56, 10-((tert-butylamino)methyl)-9-methyl-2-oxo-1,2,5,6,7,9-hexahydropyrido[3′,2′:6,7]cyclohepta[1,2-f]indole-3-carboxylic acid hydrochloride] was run?
A: 12.5 to 150 µg/mL

Q: What about the MIC [2] of the same compound?
A: < 1 µg/mL

Q: What about the MIC [3] of the same compound?
A: 1 to 3.5 µg/mL

Q: Cl.Cn1c(CN2CCC2)cc2cc3c(cc21)CCCc1cc(C(=O)O)c(=O)[nH]c1-3 [Cpd 57, 10-(azetidin-1-ylmethyl)-9-methyl-2-oxo-1,2,5,6,7,9-hexahydropyrido[3′,2′:6,7]cyclohepta[1,2-f]indole-3-carboxylic acid hydrochloride] was tested. Which MIC [1] did it give?
A: 12.5 to 150 µg/mL

Q: What about the MIC [2] of the same compound?
A: < 1 µg/mL

Q: And the MIC [3]?
A: < 1 µg/mL

Q: What does the source list for CNCc1cc2cc3c(cc2n1C)CCCCc1c-3[nH]c(=O)c(C(=O)O)c1O.Cl [Cpd 58, 4-hydroxy-10-methyl-11-((methylamino)methyl)-2-oxo-2,5,6,7,8,10-hexahydro-1H-pyrido[3′,2′:7,8]cycloocta[1,2-f]indole-3-carboxylic acid hydrochloride]?
A: MIC [1]: 3.5 to 12.5 µg/mL; MIC [2]: < 1 µg/mL; MIC [3]: < 1 µg/mL

Q: What does the source list for CCNCc1cc2cc3c(cc2n1C)CCCCc1c-3[nH]c(=O)c(C(=O)O)c1O.Cl [Cpd 59, 11-((ethylamino)methyl)-4-hydroxy-10-methyl-2-oxo-2,5,6,7,8,10-hexahydro-1H-pyrido[3′,2′:7,8]cycloocta[1,2-f]indole-3-carboxylic acid hydrochloride]?
A: MIC [1]: 3.5 to 12.5 µg/mL; MIC [2]: < 1 µg/mL; MIC [3]: < 1 µg/mL

Q: CNCc1cc2c3c(ccc2n1C)-c1[nH]c(=O)c(C(=O)O)c(O)c1CCC3.Cl [Cpd 60, 7-hydroxy-1-methyl-2-((methylamino)methyl)-9-oxo-1,4,5,6,9,10-hexahydropyrido[2′,3′:3,4]cyclohepta[1,2-e]indole-8-carboxylic acid hydrochloride] was tested. Which MIC [1] did it give?
A: 12.5 to 150 µg/mL

Q: And the MIC [2]?
A: 3.5 to 12.5 µg/mL

Q: What about the MIC [3] of the same compound?
A: 12.5 to 150 µg/mL

Q: Which results are given for CCNCc1cc2c3c(ccc2n1C)-c1[nH]c(=O)c(C(=O)O)c(O)c1CCC3.Cl [Cpd 61, 2-((ethylamino)methyl)-7-hydroxy-1-methyl-9-oxo-1,4,5,6,9,10-hexahydropyrido[2′,3′:3,4]cyclohepta[1,2-e]indole-8-carboxylic acid hydrochloride]?
A: MIC [1]: 12.5 to 150 µg/mL; MIC [2]: 3.5 to 12.5 µg/mL; MIC [3]: 3.5 to 12.5 µg/mL

Q: Which results are given for CNCc1cc2cc3c(cc2n1C)C(C)CCc1c-3[nH]c(=O)c(C(=O)O)c1O.Cl (stereo not drawn) [Cpd 62, 4-hydroxy-7,9-dimethyl-10-((methylamino)methyl)-2-oxo-1,2,5,6,7,9-hexahydropyrido[3′,2′:6,7]cyclohepta[1,2-f]indole-3-carboxylic acid hydrochloride]?
A: MIC [1]: 12.5 to 150 µg/mL; MIC [2]: 1 to 3.5 µg/mL; MIC [3]: 3.5 to 12.5 µg/mL

Q: How did the MIC [1] turn out when CCNCc1cc2cc3c(cc2n1C)C(C)CCc1c-3[nH]c(=O)c(C(=O)O)c1O.Cl (stereo not drawn) [Cpd 63, 10-((ethylamino)methyl)-4-hydroxy-7,9-dimethyl-2-oxo-1,2,5,6,7,9-hexahydropyrido[3′,2′:6,7]cyclohepta[1,2-f]indole-3-carboxylic acid hydrochloride] was run?
A: 12.5 to 150 µg/mL

Q: And the MIC [2]?
A: 1 to 3.5 µg/mL

Q: What about the MIC [3] of the same compound?
A: 3.5 to 12.5 µg/mL

Q: How did the MIC [1] turn out when CC(C)NCc1cc2cc3c(cc2n1C)C(C)CCc1c-3[nH]c(=O)c(C(=O)O)c1O.Cl (stereo not drawn) [Cpd 64, 4-hydroxy-10-((isopropylamino)methyl)-7,9-dimethyl-2-oxo-1,2,5,6,7,9-hexahydropyrido[3′,2′:6,7]cyclohepta[1,2-f]indole-3-carboxylic acid hydrochloride] was run?
A: 12.5 to 150 µg/mL

Q: And the MIC [2]?
A: 1 to 3.5 µg/mL

Q: And the MIC [3]?
A: 3.5 to 12.5 µg/mL

Q: What does the source list for CC1CCc2c([nH]c(=O)c(C(=O)O)c2O)-c2cc3cc(CNC(C)(C)C)n(C)c3cc21.Cl (stereo not drawn) [Cpd 65, 10-((tert-butylamino)methyl)-4-hydroxy-7,9-dimethyl-2-oxo-1,2,5,6,7,9-hexahydropyrido[3′,2′:6,7]cyclohepta[1,2-f]indole-3-carboxylic acid hydrochloride]?
A: MIC [1]: 3.5 to 12.5 µg/mL; MIC [2]: 1 to 3.5 µg/mL; MIC [3]: 3.5 to 12.5 µg/mL

Q: For CC1CCc2c([nH]c(=O)c(C(=O)O)c2O)-c2cc3cc(CNC4(C)CC4)n(C)c3cc21.Cl (stereo not drawn) [Cpd 66, 4-hydroxy-7,9-dimethyl-10-(((1-methylcyclopropyl)amino)methyl)-2-oxo-1,2,5,6,7,9-hexahydropyrido[3′,2′:6,7]cyclohepta[1,2-f]indole-3-carboxylic acid hydrochloride], which MIC [1] is on record?
A: 3.5 to 12.5 µg/mL

Q: And the MIC [2]?
A: 1 to 3.5 µg/mL

Q: And the MIC [3]?
A: 12.5 to 150 µg/mL

Q: Which MIC [1] does the source give for CCNCc1cc2cc3c(cc2n1C)CCC(C)c1c-3[nH]c(=O)c(C(=O)O)c1O.Cl (stereo not drawn) [Cpd 67, 10-((ethylamino)methyl)-4-hydroxy-5,9-dimethyl-2-oxo-1,2,5,6,7,9-hexahydropyrido[3′,2′:6,7]cyclohepta[1,2-f]indole-3-carboxylic acid hydrochloride] here?
A: 12.5 to 150 µg/mL

Q: What about the MIC [2] of the same compound?
A: < 1 µg/mL

Q: And the MIC [3]?
A: 1 to 3.5 µg/mL

Q: With CNCc1cc2cc3c(cc2n1C)C=CCc1c-3[nH]c(=O)c(C(=O)O)c1O.Cl [Cpd 68, 4-hydroxy-9-methyl-10-((methylamino)methyl)-2-oxo-1,2,5,9-tetrahydropyrido[3′,2′:6,7]cyclohepta[1,2-f]indole-3-carboxylic acid hydrochloride] as the compound, how does the MIC [1] read?
A: 3.5 to 12.5 µg/mL

Q: And the MIC [2]?
A: < 1 µg/mL

Q: And the MIC [3]?
A: < 1 µg/mL

Q: Which results are given for CCNCc1cc2cc3c(cc2n1C)C=CCc1c-3[nH]c(=O)c(C(=O)O)c1O.Cl [Cpd 69, 10-((ethylamino)methyl)-4-hydroxy-9-methyl-2-oxo-1,2,5,9-tetrahydropyrido[3′,2′:6,7]cyclohepta[1,2-f]indole-3-carboxylic acid hydrochloride]?
A: MIC [1]: 12.5 to 150 µg/mL; MIC [2]: < 1 µg/mL; MIC [3]: < 1 µg/mL

Q: How did the MIC [1] turn out when CCNCc1cc2cc3c(cc2n1C)C(C)=CCc1c-3[nH]c(=O)c(C(=O)O)c1O.Cl [Cpd 70, 10-((ethylamino)methyl)-4-hydroxy-7,9-dimethyl-2-oxo-1,2,5,9-tetrahydropyrido[3′,2′:6,7]cyclohepta[1,2-f]indole-3-carboxylic acid hydrochloride] was run?
A: 3.5 to 12.5 µg/mL

Q: What about the MIC [2] of the same compound?
A: 3.5 to 12.5 µg/mL

Q: What about the MIC [3] of the same compound?
A: 3.5 to 12.5 µg/mL

Q: Which results are given for CC1Oc2cc(Cl)ccc2-c2c1cc(C(=O)O)c(=O)n2Cc1ccccc1 (stereo not drawn) [Cpd 72, 1-benzyl-8-chloro-5-methyl-2-oxo-2,5-dihydro-1H-chromeno[4,3-b]pyridine-3-carboxylic acid]?
A: MIC [1]: 3.5 to 12.5 µg/mL (≈ 9.17 to 32.7 µM); MIC [2]: 3.5 to 12.5 µg/mL (≈ 9.17 to 32.7 µM); MIC [3]: 12.5 to 150 µg/mL (≈ 32.7 to 393 µM)

Q: Which MIC [1] does the source give for CC1Oc2ccccc2-c2[nH]c(=O)c(C(=O)O)cc21 (stereo not drawn) [Cpd 73, 5-methyl-2-oxo-2,5-dihydro-1H-chromeno[4,3-b]pyridine-3-carboxylic acid] here?
A: 12.5 to 150 µg/mL (≈ 48.6 to 583 µM)

Q: What about the MIC [2] of the same compound?
A: 12.5 to 150 µg/mL (≈ 48.6 to 583 µM)

Q: What about the MIC [3] of the same compound?
A: 12.5 to 150 µg/mL (≈ 48.6 to 583 µM)
